Test results from ChEMBL document CHEMBL3425491, “Development of novel ACK1/TNK2 inhibitors using a fragment-based approach” (J Med Chem, 2015).
Values after ≈ are worked out from the molar mass of the structure shown. Active and inactive are the calls of the source. The calls are words filed in the database; no cut-off is given here.

Tests used:
[1] = target: T1, Activated CDC42 kinase 1 (Homo sapiens, UniProt Q07912); experiment: Inhibition of human ACK1 kinase activity using biotinylated ATGRYYAMKIL - AKT peptide substrate assessed as phosphorylation at 10 uM by ELISA; format: single protein
Target sequence in this assay (Q07912 whole entry, looked up): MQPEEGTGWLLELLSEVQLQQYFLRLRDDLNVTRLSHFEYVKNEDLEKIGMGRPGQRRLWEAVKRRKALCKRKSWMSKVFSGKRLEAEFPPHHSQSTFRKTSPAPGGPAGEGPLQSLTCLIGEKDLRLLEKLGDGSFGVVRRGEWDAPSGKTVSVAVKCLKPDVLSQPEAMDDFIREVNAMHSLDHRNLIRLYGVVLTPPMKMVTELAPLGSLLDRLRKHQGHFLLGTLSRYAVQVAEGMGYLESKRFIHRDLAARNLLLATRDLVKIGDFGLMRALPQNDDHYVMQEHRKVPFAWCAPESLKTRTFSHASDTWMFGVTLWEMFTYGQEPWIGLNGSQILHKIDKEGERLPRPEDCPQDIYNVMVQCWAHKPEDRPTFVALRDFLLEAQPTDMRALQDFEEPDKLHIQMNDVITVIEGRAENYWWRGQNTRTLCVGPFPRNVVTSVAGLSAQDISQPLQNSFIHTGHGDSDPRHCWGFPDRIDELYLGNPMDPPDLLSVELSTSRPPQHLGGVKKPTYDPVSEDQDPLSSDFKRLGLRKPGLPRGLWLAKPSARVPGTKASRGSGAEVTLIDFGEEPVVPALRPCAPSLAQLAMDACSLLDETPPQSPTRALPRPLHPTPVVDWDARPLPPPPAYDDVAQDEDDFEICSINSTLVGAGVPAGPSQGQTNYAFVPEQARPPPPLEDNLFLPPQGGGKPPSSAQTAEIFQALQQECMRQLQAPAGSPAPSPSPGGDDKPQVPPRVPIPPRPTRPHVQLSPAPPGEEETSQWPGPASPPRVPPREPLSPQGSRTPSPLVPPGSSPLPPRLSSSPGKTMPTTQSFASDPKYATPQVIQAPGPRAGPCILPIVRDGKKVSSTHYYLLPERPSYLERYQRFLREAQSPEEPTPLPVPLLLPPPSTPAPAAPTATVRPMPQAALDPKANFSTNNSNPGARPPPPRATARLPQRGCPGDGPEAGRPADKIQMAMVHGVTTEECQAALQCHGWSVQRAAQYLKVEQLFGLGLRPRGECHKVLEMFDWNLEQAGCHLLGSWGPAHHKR

[2] = target: T1, Activated CDC42 kinase 1; experiment: Inhibition of ACK1 kinase (unknown origin)
Target sequence in this assay (Q07912 whole entry): as the sequence (Q07912 whole entry, looked up) above

[3] = target: Tyrosine-protein kinase Lck (Homo sapiens, UniProt P06239)
[4] = target: T2, Fibroblast growth factor receptor 1 (Homo sapiens, UniProt P11362); experiment: Inhibition of human FGFR1 using KKKSPGEYVNIEFG peptide substrate at 1 uM by 33P Hotspot assay
[5] = target: Mitogen-activated protein kinase kinase kinase 8 (Homo sapiens) (UniProt P41279); experiment: Inhibition of human COT1/MAP3K8 using MEK1 (K97R) substrate at 1 uM by 33P Hotspot assay
[6] = target: Tyrosine-protein kinase CSK (Homo sapiens) (UniProt P41240); experiment: Inhibition of human CSK using poly[Glu:Tyr] (4:1) peptide substrate at 1 uM by 33P Hotspot assay
[7] = target: T3, Non-receptor tyrosine-protein kinase TYK2 (Homo sapiens, UniProt P29597); experiment: Inhibition of human TYK2 using KKSRGDYMTMQIG peptide substrate at 1 uM by 33P Hotspot assay
[8] = target: Inhibitor of nuclear factor kappa-B kinase subunit alpha (Homo sapiens) (UniProt O15111); experiment: Inhibition of human IKKa/CHUK using KKKKERLLDDRHDSGLDSMKDEE peptide substrate at 1 uM by 33P Hotspot assay
[9] = target: Ephrin type-A receptor 2 (Homo sapiens) (UniProt P29317); experiment: Inhibition of human EPHA2 using poly[Glu:Tyr] (4:1) peptide substrate at 1 uM by 33P Hotspot assay
[10] = target: Hepatocyte growth factor receptor (Homo sapiens) (UniProt P08581); experiment: Inhibition of human c-MET using KKKSPGEYVNIEFG peptide substrate at 1 uM by 33P Hotspot assay
[11] = target: Platelet-derived growth factor receptor alpha (Homo sapiens) (UniProt P16234); experiment: Inhibition of human PDGFRalpha using poly[Glu:Tyr] (4:1) peptide substrate at 1 uM by 33P Hotspot assay
[12] = target: High affinity nerve growth factor receptor (Homo sapiens) (UniProt P04629); experiment: Inhibition of human TRKA using poly[Glu:Tyr] (4:1) peptide substrate at 1 uM by 33P Hotspot assay
[13] = target: Mitogen-activated protein kinase 3 (Homo sapiens) (UniProt P27361); experiment: Inhibition of human ERK1 using myelin basic protein substrate at 1 uM by 33P Hotspot assay
[14] = cells; conditions: Homo sapiens, VCaP, 72 h
[15] = target: Proto-oncogene tyrosine-protein kinase ROS (Homo sapiens, UniProt P08922); experiment: Inhibition of human ROS/ROS1 using KKKSPGEYVNIEFG peptide substrate by 33P Hotspot assay
[16] = target: T2, Fibroblast growth factor receptor 1; experiment: Inhibition of human FGFR1 using KKKSPGEYVNIEFG peptide substrate by 33P Hotspot assay
[17] = target: Serine/threonine-protein kinase pim-1 (Homo sapiens) (UniProt P11309); experiment: Inhibition of human PIM1 using KKRNRTLTK peptide substrate at 1 uM by 33P Hotspot assay
[18] = target: Serine/threonine-protein kinase mTOR (Homo sapiens) (UniProt P42345); experiment: Inhibition of human mTOR/FRAP1 using 4EBP1 peptide substrate at 1 uM by 33P Hotspot assay
[19] = target: RAF proto-oncogene serine/threonine-protein kinase (Homo sapiens) (UniProt P04049); experiment: Inhibition of human RAF1 using MEK1 (K97R) peptide substrate at 1 uM by 33P Hotspot assay
[20] = tested on: Plasma; experiment: Half life in human plasma; format: ADME, cell-free
[21] = target: RAC-alpha serine/threonine-protein kinase (Homo sapiens) (UniProt P31749); experiment: Inhibition of human AKT1 using KGSGSGRPRTSSFAEG peptide substrate at 1 uM by 33P Hotspot assay
[22] = target: Tyrosine-protein kinase BTK (Homo sapiens) (UniProt Q06187); experiment: Inhibition of human BTK using […] peptide substrate at 1 uM by 33P Hotspot assay
[23] = tested on: LNCaP; experiment: cells; conditions: Homo sapiens, 72 h
[24] = target: Serine/threonine-protein kinase Chk1 (Homo sapiens, UniProt O14757); experiment: Inhibition of human CHK1 using KKKVSRSGLYRSPSMPENLNRPR peptide substrate by 33P Hotspot assay
[25] = target: T4, Tyrosine-protein kinase JAK2 (Homo sapiens, UniProt O60674); experiment: Inhibition of human JAK2 using poly[Glu:Tyr] (4:1) peptide substrate by 33P Hotspot assay
[26] = target: Tyrosine-protein kinase ABL1 (Homo sapiens, UniProt P00519); experiment: Inhibition of human ABL1 using EAIYAAPFAKKK peptide substrate by 33P Hotspot assay
[27] = target: Ribosomal protein S6 kinase beta-1 (Homo sapiens) (UniProt P23443); experiment: Inhibition of human p70S6K/RPS6KB1 using KKRNRTLTK peptide substrate at 1 uM by 33P Hotspot assay
[28] = target: Tyrosine-protein kinase FRK (Homo sapiens) (UniProt P42685); experiment: Inhibition of human FRK/PTK5 using poly[Glu:Tyr] (4:1) peptide substrate at 1 uM by 33P Hotspot assay
[29] = target: Glycogen synthase kinase-3 alpha (Homo sapiens) (UniProt P49840); conditions: at 1 µM
[30] = Solubility in PBS with 10% DMSO; format: physicochemical; conditions: buffer
[31] = target: Insulin receptor (Homo sapiens) (UniProt P06213); experiment: Inhibition of human IR using poly[Glu:Tyr] (4:1) peptide substrate at 1 uM by 33P Hotspot assay
[32] = target: T4, Tyrosine-protein kinase JAK2; experiment: Inhibition of human JAK2 using poly[Glu:Tyr] (4:1) peptide substrate at 1 uM by 33P Hotspot assay
[33] = target: Serine/threonine-protein kinase TBK1 (Homo sapiens) (UniProt Q9UHD2); experiment: Inhibition of human TBK1 using KRRRAL[pS]VASLPGL peptide substrate at 1 uM by 33P Hotspot assay
[34] = target: Tyrosine-protein kinase receptor UFO (Homo sapiens) (UniProt P30530); experiment: Inhibition of human AXL using EAIYAAPFAKKK peptide substrate at 1 uM by 33P Hotspot assay
[35] = target: Receptor tyrosine-protein kinase erbB-2 (Homo sapiens) (UniProt P04626); experiment: Inhibition of human ERBB2/HER2 using poly[Glu:Tyr] (4:1) peptide substrate at 1 uM by 33P Hotspot assay
[36] = target: Serine/threonine-protein kinase Chk1 (Homo sapiens) (UniProt O14757); experiment: Inhibition of human CHK1 using KKKVSRSGLYRSPSMPENLNRPR peptide substrate at 1 uM by 33P Hotspot assay
[37] = target: Wee1-like protein kinase (Homo sapiens) (UniProt P30291); experiment: Inhibition of human WEE1 using myelin basic protein substrate at 1 uM by 33P Hotspot assay
[38] = target: Serine/threonine-protein kinase Sgk1 (Homo sapiens) (UniProt O00141); experiment: Inhibition of human SGK1 using KGSGSGRPRTSSFAEG peptide substrate at 1 uM by 33P Hotspot assay
[39] = tested on: LAPC4; experiment: Anticancer activity against human LAPC4 cells assessed as inhibition of cell growth up to 10 uM after 72 hrs by trypan blue exclusion assay; format: functional, cell-based
[40] = target: T3, Non-receptor tyrosine-protein kinase TYK2; experiment: Inhibition of human TYK2 using KKSRGDYMTMQIG peptide substrate by 33P Hotspot assay
[41] = target: Epidermal growth factor receptor (Homo sapiens) (UniProt P00533); experiment: Inhibition of human EGFR using poly[Glu:Tyr] (4:1) peptide substrate at 1 uM by 33P Hotspot assay
[42] = target: Vascular endothelial growth factor receptor 2 (Homo sapiens) (UniProt P35968); experiment: Inhibition of human KDR/VEGFR2 using poly[Glu:Tyr] (4:1) peptide substrate at 1 uM by 33P Hotspot assay
[43] = target: Angiopoietin-1 receptor (Homo sapiens) (UniProt Q02763); experiment: Inhibition of human TIE2/TEK using poly[Glu:Tyr] (4:1) peptide substrate at 1 uM by 33P Hotspot assay

Chain of Tyrosine-protein kinase Lck (P06239 whole entry): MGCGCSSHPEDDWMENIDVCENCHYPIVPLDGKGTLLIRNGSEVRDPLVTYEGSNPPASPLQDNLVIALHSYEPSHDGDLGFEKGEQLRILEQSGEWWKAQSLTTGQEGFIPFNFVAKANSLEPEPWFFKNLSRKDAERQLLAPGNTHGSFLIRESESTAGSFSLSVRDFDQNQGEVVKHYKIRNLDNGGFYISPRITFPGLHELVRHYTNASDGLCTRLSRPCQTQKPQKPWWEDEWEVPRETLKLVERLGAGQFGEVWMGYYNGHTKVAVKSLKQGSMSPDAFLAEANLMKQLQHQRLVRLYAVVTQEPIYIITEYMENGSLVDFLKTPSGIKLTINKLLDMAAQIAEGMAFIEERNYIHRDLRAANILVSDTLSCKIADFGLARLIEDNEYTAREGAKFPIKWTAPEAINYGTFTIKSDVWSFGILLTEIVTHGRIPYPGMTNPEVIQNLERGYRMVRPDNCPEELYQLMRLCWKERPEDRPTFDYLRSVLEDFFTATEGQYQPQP
T3 sequence (P29597 whole entry): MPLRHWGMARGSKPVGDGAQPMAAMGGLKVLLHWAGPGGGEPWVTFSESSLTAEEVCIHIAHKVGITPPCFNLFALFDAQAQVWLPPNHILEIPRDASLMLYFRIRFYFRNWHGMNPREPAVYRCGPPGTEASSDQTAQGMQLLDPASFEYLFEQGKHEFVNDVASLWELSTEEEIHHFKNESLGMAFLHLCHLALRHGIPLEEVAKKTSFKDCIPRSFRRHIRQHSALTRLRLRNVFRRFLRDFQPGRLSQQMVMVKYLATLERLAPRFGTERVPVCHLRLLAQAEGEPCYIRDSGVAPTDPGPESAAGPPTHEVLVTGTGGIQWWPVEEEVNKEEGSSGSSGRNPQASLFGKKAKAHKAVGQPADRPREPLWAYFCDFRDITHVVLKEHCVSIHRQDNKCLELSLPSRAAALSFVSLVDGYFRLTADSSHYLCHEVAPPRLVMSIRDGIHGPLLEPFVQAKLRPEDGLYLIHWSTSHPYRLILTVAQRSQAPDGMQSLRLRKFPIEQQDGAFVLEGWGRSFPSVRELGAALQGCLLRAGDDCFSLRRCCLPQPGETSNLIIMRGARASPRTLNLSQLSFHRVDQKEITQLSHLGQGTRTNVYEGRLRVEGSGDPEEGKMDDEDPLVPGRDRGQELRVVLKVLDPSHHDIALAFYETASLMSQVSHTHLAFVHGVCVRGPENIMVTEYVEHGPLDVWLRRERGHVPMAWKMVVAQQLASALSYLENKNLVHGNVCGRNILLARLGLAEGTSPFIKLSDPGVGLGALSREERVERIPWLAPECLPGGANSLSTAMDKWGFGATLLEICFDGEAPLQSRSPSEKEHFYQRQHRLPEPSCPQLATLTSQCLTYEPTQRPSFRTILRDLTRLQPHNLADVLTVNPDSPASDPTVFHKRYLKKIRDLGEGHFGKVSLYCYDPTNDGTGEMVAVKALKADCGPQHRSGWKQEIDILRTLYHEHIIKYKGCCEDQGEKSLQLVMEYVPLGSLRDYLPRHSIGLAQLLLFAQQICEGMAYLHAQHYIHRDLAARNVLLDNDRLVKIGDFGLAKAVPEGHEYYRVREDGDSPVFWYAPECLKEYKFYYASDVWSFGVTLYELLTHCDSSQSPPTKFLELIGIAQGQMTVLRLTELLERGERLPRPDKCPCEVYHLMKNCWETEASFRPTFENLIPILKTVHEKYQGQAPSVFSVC
T4 sequence (O60674 whole entry): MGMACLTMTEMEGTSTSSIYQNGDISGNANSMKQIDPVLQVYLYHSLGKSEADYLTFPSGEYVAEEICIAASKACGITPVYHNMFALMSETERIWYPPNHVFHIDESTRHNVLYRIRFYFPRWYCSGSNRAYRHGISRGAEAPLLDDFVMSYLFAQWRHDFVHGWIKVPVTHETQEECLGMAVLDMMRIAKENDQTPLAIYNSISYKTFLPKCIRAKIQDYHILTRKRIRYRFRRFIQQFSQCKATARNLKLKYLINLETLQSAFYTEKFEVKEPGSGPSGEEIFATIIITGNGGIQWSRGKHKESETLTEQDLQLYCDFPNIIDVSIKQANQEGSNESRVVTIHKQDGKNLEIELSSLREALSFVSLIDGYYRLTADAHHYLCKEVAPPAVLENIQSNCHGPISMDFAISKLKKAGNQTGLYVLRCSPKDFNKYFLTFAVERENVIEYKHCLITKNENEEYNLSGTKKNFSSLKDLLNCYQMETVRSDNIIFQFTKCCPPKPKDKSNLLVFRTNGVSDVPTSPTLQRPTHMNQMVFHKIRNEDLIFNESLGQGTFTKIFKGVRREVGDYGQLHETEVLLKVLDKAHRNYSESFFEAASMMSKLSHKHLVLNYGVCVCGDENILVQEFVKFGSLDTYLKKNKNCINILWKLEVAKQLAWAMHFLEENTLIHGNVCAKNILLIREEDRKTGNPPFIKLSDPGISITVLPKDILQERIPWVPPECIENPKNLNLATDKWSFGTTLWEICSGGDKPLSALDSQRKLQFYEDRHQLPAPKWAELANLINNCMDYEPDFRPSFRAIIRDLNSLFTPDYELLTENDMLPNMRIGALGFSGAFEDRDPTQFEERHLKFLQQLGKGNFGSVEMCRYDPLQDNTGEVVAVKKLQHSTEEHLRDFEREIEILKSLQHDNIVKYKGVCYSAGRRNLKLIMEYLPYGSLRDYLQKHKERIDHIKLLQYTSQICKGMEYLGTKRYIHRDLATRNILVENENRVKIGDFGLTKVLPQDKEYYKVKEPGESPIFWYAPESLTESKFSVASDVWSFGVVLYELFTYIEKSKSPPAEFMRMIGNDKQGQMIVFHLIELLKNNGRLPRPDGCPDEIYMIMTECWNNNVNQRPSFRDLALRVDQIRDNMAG
Chain of Tyrosine-protein kinase FRK (Homo sapiens) (P42685 whole entry): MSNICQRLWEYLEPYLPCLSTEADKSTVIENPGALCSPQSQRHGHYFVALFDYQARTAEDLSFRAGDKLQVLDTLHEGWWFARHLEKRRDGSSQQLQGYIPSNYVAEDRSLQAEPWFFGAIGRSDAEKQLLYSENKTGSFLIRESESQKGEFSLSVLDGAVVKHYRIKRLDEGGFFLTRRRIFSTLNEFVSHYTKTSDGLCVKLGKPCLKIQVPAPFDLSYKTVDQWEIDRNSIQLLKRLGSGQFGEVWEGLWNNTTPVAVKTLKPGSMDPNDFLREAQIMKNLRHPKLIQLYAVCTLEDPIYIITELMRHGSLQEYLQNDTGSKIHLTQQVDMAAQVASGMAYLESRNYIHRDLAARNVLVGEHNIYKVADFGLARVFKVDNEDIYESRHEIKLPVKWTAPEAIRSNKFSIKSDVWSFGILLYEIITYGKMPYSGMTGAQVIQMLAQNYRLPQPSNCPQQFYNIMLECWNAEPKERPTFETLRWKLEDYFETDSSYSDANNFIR
Chain of Wee1-like protein kinase (Homo sapiens) (P30291 whole entry, looked up): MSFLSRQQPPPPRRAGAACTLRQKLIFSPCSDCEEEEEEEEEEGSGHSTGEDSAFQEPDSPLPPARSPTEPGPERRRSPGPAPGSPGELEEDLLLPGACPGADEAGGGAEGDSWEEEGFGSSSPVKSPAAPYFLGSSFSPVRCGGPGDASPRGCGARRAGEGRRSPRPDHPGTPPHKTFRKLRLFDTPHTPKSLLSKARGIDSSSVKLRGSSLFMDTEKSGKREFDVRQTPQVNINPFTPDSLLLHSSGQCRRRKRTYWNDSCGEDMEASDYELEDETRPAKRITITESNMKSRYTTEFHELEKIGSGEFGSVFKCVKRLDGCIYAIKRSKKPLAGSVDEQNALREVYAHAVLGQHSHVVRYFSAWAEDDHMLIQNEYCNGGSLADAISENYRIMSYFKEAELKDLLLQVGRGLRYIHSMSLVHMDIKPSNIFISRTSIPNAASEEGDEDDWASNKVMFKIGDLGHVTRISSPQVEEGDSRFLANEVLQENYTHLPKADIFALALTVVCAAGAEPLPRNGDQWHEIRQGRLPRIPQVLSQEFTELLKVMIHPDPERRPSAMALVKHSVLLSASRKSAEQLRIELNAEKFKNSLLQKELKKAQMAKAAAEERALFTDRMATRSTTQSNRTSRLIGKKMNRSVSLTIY

SMILES: COc1ccc(Nc2ncc(C(=O)Nc3c(F)cccc3Cl)c(NCC3CCCO3)n2)cc1 (racemic)
- inhibition [1]: 68%

SMILES: O=C(O)C1CCN(c2ccc(Nc3ncc(Cl)c(NCC4CCCO4)n3)cc2)CC1 (racemic)
- inhibition [1]: 93%

SMILES: O=C(Nc1c(F)cccc1Cl)c1cnc(Nc2ccc(C3CCNCC3)cc2)nc1NCC1CCCO1 (racemic)
- inhibition [1]: 97%

SMILES: O=C(O)CCc1ccc(Nc2ncc(Br)c(NCC3CCCO3)n2)cc1 (stereo unspecified)
- inhibition [1]: 74.5%

SMILES: O=C(Nc1c(F)cccc1Cl)c1cnc(Nc2ccc(O)cc2)nc1NCC1CCCO1 (racemic)
- inhibition [1]: 85%

SMILES: Oc1ccc(Nc2ncc(Cl)c(NCC3CCCO3)n2)cc1 (stereo unspecified)
- inhibition [1]: 65%

SMILES: CN(C)CCOc1ccc(-c2oc3ncnc(NCC4SCCS4)c3c2-c2ccccc2)cc1
- Ki [2]: 0.3 nM
- Ki [3]: 138 nM

SMILES: Oc1ccc(Nc2ncc(Br)c(NCC3CCCO3)n2)cc1F (stereo unspecified)
- inhibition [1]: 76%

SMILES: CN1CCN(c2ccc(Nc3ncc(Cl)c(NC[C@H]4CCCO4)n3)cc2)CC1
- inhibition [4]: 86.4%
- inhibition [5]: -7.7%
- inhibition [6]: 26.3%
- inhibition [7]: 98.9%
- inhibition [8]: 0.4%
- inhibition [9]: 31.9%
- inhibition [10]: 23.1%
- inhibition [11]: 42.7%
- inhibition [12]: 63.2%
- inhibition [13]: 1.9%
- IC50 [14]: 2000 nM
- IC50 [15]: 124 nM
- IC50 [16]: 160 nM
- inhibition [17]: 3.6%
- inhibition [18]: -5.6%
- inhibition [19]: -0.8%
- t1/2 [20]: > 6 h
- inhibition [21]: 4.7%
- inhibition [22]: 45.1%
- IC50 [23]: 1800 nM
- IC50 [24]: 154 nM
- IC50 [25]: 6 nM
- IC50 [26]: 206 nM
- inhibition [27]: 24.1%
- inhibition [28]: 41.3%
- inhibition [29]: 5.1%
- solubility [30]: 1000 µg/mL (≈ 2480 µM)
- inhibition [31]: 46.6%
- inhibition [32]: 98.6%
- inhibition [33]: 71.8%
- inhibition [34]: 75.9%
- inhibition [35]: -1.1%
- inhibition [36]: 84.8%
- IC50 [3]: 136 nM
- inhibition [37]: 12.4%
- inhibition [38]: 26%
- inhibition [39]: Active
- IC50 [40]: 5 nM
- inhibition [41]: -2.8%
- inhibition [42]: 67.3%
- inhibition [43]: 32%

SMILES: O=C(O)Cc1ccc(Nc2ncc(Cl)c(NCC3CCCO3)n2)cc1 (stereo unspecified)
- inhibition [1]: 76.5%

SMILES: O=C(O)CCC(=O)N1CCN(c2ccc(Nc3ncc(Br)c(NCC4CCCO4)n3)cc2)CC1 (stereo unspecified)
- inhibition [1]: 92%

SMILES: c1ccc(-c2oc3ncnc(NC[C@@H]4CCCO4)c3c2-c2ccccc2)cc1
- inhibition [39]: Active

SMILES: O=C(Nc1c(F)cccc1Cl)c1cnc(Nc2ccc(N3CCOCC3)cc2)nc1NCC1CCCO1 (racemic)
- inhibition [1]: 82%

SMILES: CN1CCN(c2ccc(Nc3nccc(NCC4CCCO4)n3)cc2)CC1 (stereo unspecified)
- inhibition [1]: 16%

SMILES: O=C(Nc1c(F)cccc1Cl)c1cnc(Nc2ccc(N3CCNCC3)cc2)nc1NCC1CCCO1 (racemic)
- inhibition [1]: 89.5%

SMILES: CN1CCN(c2ccc(Nc3ncc(Cl)c(NCC4CCCO4)n3)cc2)CC1 (racemic)
- inhibition [1]: 90.5%

SMILES: Clc1cnc(Nc2ccc(C3CCNCC3)cc2)nc1NCC1CCCO1 (racemic)
- inhibition [1]: 79.5%

SMILES: O=C(O)Cc1ccc(Nc2ncc(Br)c(NCC3CCCO3)n2)cc1 (stereo unspecified)
- inhibition [1]: 61%

SMILES: Clc1cnc(Nc2ccc(N3CCNCC3)cc2)nc1NCC1CCCO1 (racemic)
- inhibition [1]: 82%

SMILES: CN(C)CCNC(=O)CCc1ccc(Nc2ncc(Cl)c(NCC3CCCO3)n2)cc1 (stereo unspecified)
- inhibition [1]: 68%

SMILES: O=C(Nc1c(F)cccc1Cl)c1cnc(Nc2ccc(O)c(F)c2)nc1NCC1CCCO1 (stereo unspecified)
- inhibition [1]: 66%

SMILES: CN1CCN(c2ccc(Nc3ncc(Br)c(NCC4CCCO4)n3)cc2)CC1 (stereo unspecified)
- inhibition [1]: 93%

SMILES: CN1CCN(c2ccc(Nc3ncc(C(=O)Nc4c(F)cccc4Cl)c(NCC4CCCO4)n3)cc2)CC1 (stereo unspecified)
- inhibition [1]: 97%

SMILES: COC(C)(C)CCn1nc(Nc2c(C)cccc2C)c2cnc(Nc3ccccc3)nc21
- IC50 [2]: 2 nM

SMILES: CN1CCN(c2ccc(Nc3ncc(Cl)c(NC[C@@H]4CCCO4)n3)cc2)CC1
- IC50 [14]: 4000 nM
- t1/2 [20]: > 6 h
- solubility [30]: 900 µg/mL (≈ 2230 µM)
- IC50 [2]: 82 nM
- inhibition [39]: Active

SMILES: Brc1cnc(Nc2ccc(C3CCNCC3)cc2)nc1NCC1CCCO1 (racemic)
- inhibition [1]: 84.5%

SMILES: Brc1cnc(Nc2ccc(N3CCOCC3)cc2)nc1NCC1CCCO1 (racemic)
- inhibition [1]: 89%

SMILES: O=C(O)CCCc1ccc(Nc2ncc(Cl)c(NCC3CCCO3)n2)cc1 (stereo unspecified)
- inhibition [1]: 60%

SMILES: COc1ccc(Nc2ncc(Br)c(NCC3CCCO3)n2)cc1 (stereo unspecified)
- inhibition [1]: 67%

SMILES: O=C(O)C1CCN(c2ccc(Nc3ncc(Br)c(NCC4CCCO4)n3)cc2)CC1 (racemic)
- inhibition [1]: 85%

SMILES: O=C(O)CCc1ccc(Nc2ncc(Cl)c(NCC3CCCO3)n2)cc1 (stereo unspecified)
- inhibition [1]: 74%
